Several values for one entry are separate records, joined by “and”; a condition that tells them apart may be missing. Equal entries are not always repeated.
Key:
[1] = Active evaluation (USP23 NF/21) of white petrolatum ointment base formula, three samples; assay type: physicochemical; settings: Samples 1-3 from different parts of the vessel, specification 90.0 to 110.0%
Method: As for the ointment base determination, an ointment base having the following components was tested: white petrolatum (carrier), NF 85 mineral oil (texture and appearance modifier), PEG 40 hydrogenated castor oil (solvent), glycerin (moistener), butyl hydroxy toluene (antioxidant), methyl paraben and propyl paraben (preservatives), mupirocin and betamethasone dipropionate (active ingredients). The manufacture process was the following: In an appropriate size vessel the white petrolatum, mineral oil and glycerin were placed, this mixture was heated up to a temperature of 75° C. and then the butyl hydroxy toluene with the parabens was dissolved; separately in other suitable size vessel the PEG 40 hydrogenated castor oil was placed, heated up to a 60° C. temperature and mupirocin and betamethasone dipropionate were solved therein; when both mixtures were at 60° C. they were mixed and the final product was obtained after lowering the temperature with constant mixing until reaching ambient temperature.
(§1) Once the product was obtained three samples were analyzed, collected from different parts of the vessel containing the product, by Active Evaluation techniques reported for each of them in the individual monographs included in USP23 NF/21.

[2] = Incompatibility tests, active evaluation immediately after preparation; assay type: physicochemical; design: unit not given here; settings: for Active evaluation, Test 1: actives + PEG 40 hydrogenated castor oil, analysed immediately after preparation; for Active evaluation, Test 2: as Test 1 + butyl hydroxy toluene; for Active evaluation, Test 3: as Test 2 + propyl paraben; for Active evaluation, Test 4: as Test 3 + methyl paraben; for Active evaluation, Test 5: as Test 4 + glycerin; for Active evaluation, Test 6: as Test 5 + mineral oil; for Active evaluation, Test 7: as Test 6 + white petrolatum
Method: In order to test the possible incompatibility of mupirocin with one of the excipients the following tests reported in Table No. 4 were performed and the results are the following: [table]

[3] = Active evaluation (USP23 NF/21) of polyethylene glycol based formula, three samples; assay type: physicochemical; settings: formula with PEG 40 hydrogenated castor oil, polyethylene glycol 600, PEG 150 distearate, methyl paraben; Samples 1-3; specification 90.0 to 110.0%
Method: Taking the experience that mupirocin and betamethasone dipropionate are soluble at 60° C. in PEG 40 hydrogenated castor oil and in polyethylene glycol 600 (according to Table No. 2), a formulation having the following ingredients is proposed: mupirocin and betamethasone dipropionate (active ingredients), PEG 40 hydrogenated castor oil (cosolvent), polyethylene glycol 600 (balance excipient or carrier), PEG 150 distearate (thickener) and methyl paraben (preservative). The manufacturing process was the following: In an appropriate size vessel the polyethylene glycol 600 and PEG 40 hydrogenated castor oil were placed, this mixture was heated up to a temperature of 70° C. and then the methyl paraben, mupirocin and betamethasone dipropionate were dissolved; once all the above ingredients were dissolved, the temperature was lowered with constant mixing until reaching 60° C.; it was then added the PEG 150 distearate and continued mixing until the mixture was homogenous; the final product was obtained after lowering the temperature with constant mixing until reaching ambient temperature.
as §1

Bactericide action tests = settings: at the concentrations obtained in a 2% topical formulation
[4] = Simple incorporation of the active in white petrolatum at 60° C.; assay type: physicochemical; settings: incorporated in white petrolatum at 60° C.; cream color gummy hard precipitate forms
Method: According to the results it can be concluded that mupirocin in the presence of white petrolatum undergoes a possible chemical degrading. It then followed a simple incorporation of the active in the white petrolatum at a temperature of 60° C. and it was seen that immediately a cream color precipitate forms having a gummy appearance and hard. […] Therefore, this ointment base with mupirocin is discarded.

SMILES	Evaluation Results [1]	Active evaluation, Test 1 [2]	Active evaluation, Test 2 [2]	Active evaluation, Test 3 [2]	Active evaluation, Test 4 [2]	Active evaluation, Test 5 [2]	Active evaluation, Test 6 [2]	Active evaluation, Test 7 [2]	Evaluation Results [3]	bactericide action (Bactericide action tests)	Compatibility with white petrolatum [4]
CCC(=O)OCC(=O)[C@@]1(OC(=O)CC)[C@@H](C)C[C@H]2[C@@H]3CCC4=CC(=O)C=C[C@]4(C)[C@@]3(F)[C@@H](O)C[C@@]21C [Betamethasone dipropionate]	100.6% and 100.2%	100.2	100.3	100.2	99.8	100.2	100.4	99.3	99.8% and 100.3% and 100.1%	–	–
C/C(=C\C(=O)OCCCCCCCCC(=O)O)C[C@@H]1OC[C@H](C[C@@H]2O[C@H]2[C@@H](C)[C@H](C)O)[C@@H](O)[C@H]1O [Mupirocin]	70.5% and 71.2% and 70.7%	98.8	99.3	98.7	98.9	99.0	98.8	69.8	98.7% and 99.1% and 99.4%	has bactericide action	incompatible with white petrolatum

— patent publication US8349889B2, “Skin-care preparations containing mupirocin and betamethasone dipropionate” (Laboratorios Dermatologicos Darier, S.A. DE C.V., priority 2005, dated 2013)
